Values quoted from earlier work in US20140220138A1, “ENHANCED NITRIC OXIDE DELIVERY AND USES THEREOF” (Albert Einstein College of Medicine of Yeshiva University, priority 2011, published 2014).
≈ marks a conversion by molar mass, not a printed value.

Columns and labels:
[1] = system: E. coli (ATCC 25922)
[2] = system: Bacillus subtilis

Row | Structure (SMILES) | MIC90 [1] [mM] | reduction in Bacillus viability ([2]; 20-25 μM NO repetitively added over time) [fold] | viability after exposure to NO ([2]; exposure to either 50 or 200 μM NO)
1 | N[C@@H](CCC(=O)N[C@@H](CSN=O)C(=O)NCC(=O)O)C(=O)O [GSNO, S-nitrosoglutathione] | 5 (≈ 1680 µg/mL) | – | –
2 | [N]=O [NO, nitric oxide] | – | 100 | no significant loss in viability
